Laboratory results reported in US9084770B2, “Modulation of insulin like growth factor I receptor expression in cancer” (Antisense Therapeutics, Ltd., priority 2008, dated 2015).

Tests used:
Ptx-R PC3 cells = assay: Ptx-R PC3 viable cells after transfection with or without Paclitaxel; format: cell-based, human; settings: 100 nM Paclitaxel and 25 nM oligonucleotide
Experimental: The number of viable PC3 and PtxR PC3 cells was determined 72 hours after the second transfection.
[…] The number of viable cells remaining was determined 72 hours after the second transfection treatment. ATL1101 treatment enhances the Ptx-R sensitivity to Paclitaxel under standard culture conditions. For example, there was approximately 45% cell viability with 100 nM Paclitaxel and 25 nM control oligodeoxynucleotide whereas, only 25 nM Paclitaxel is needed in the presence of 25 nM ATL1101 to produce the same reduction in cell viability.

PC3 tumors = assay: PC-3 xenograft with Paclitaxel, mean tumor volume; format: in vivo, mice; settings: 15 mg/kg i.p. oligonucleotide plus Paclitaxel
Excerpt: In vivo treatments in a PC-3 xenograft model were done substantially as described by Zellweger et al., 2001. PC3 cells (2×10^6 cells) were xenografted by subcutaneous injection into recipient 6-8 week-old athymic nude (nu/nu) mice. When tumors reached 200 mm^3, mice were randomly assigned to one of two arms for treatment with 2′-MOE-modified IGF-IR antisense oligonucleotide (ATL1101) plus Paclitaxel, or mismatch control oligodeoxynucleotide ISIS 306064 plus Paclitaxel. Each experimental group consisted of 10 mice. After randomization, 15 mg/kg of ATL1101 antisense oligonucleotide or mismatch control oligonucleotide were injected intraperitoneal (i.p.) into each mouse once daily for the first 5 days and 3 times a week (every other day) thereafter for 7 weeks. On days 7, 9, 11, and on days 21, 23, and 25, 0.5 mg of polymeric micellar Paclitaxel was administered once daily by i.v. injection. Mean Tumor volume was measured once weekly for 8 weeks and calculated by the formula length×width×depth×0.5236.
In PC3 mice, after 5 weeks of treatment, mean tumor size in mice treated with Paclitaxel and mismatch control oligodeoxynucleotide was 326+/−40.9 mm^3 compared with 175+/−20.1 mm^3 in mice treated with Paclitaxel and ATL1101, or 53.7% of control (p<0.01). After 8 weeks of treatment, mean tumor size in mice treated with Paclitaxel and mismatch control oligodeoxynucleotide was 1417+/−222 mm^3 compared with 507+/−79.3 mm^3 in mice treated with Paclitaxel and ATL1101, or 35.8% of control (p<0.01).

PC3 cells [1] = assay: PC3 cell viability, crystal violet assay; format: cell-based, human; settings: three days after treatment
Experimental: (§1) Established methods were used to test the activity of IGF-IR antisense oligonucleotide on LNCaP and PC-3 cell growth (crystal violet assay) and apoptosis (FACS). Dose- and sequence-specific suppression of IGF-IR mRNA and protein expression in ATL1101-treated LNCaP and PC3 PC cell lines in vitro were observed by QT-PCR and western blotting. Effects of the IGF-IR antisense oligonucleotide on various putative targets, including IGF-IR and downstream targets were evaluated using western blotting.
(§2) Cells were transfected with indicated concentrations of ATL1101, control oligodeoxynucleotides or oligofectamine as in FIGS. 1A(i)-1A(ii). Three days after treatment, cell viability was determined by crystal violet assay. Viable cell density was normalized to that of cells treated with oligofectamine. Points, means of triplicate analysis; bars, SE. *, p<0.05 differs from control oligodeoxynucleotide treatment group. **, p<0.01 differs from control oligodeoxynucleotide treatment group by Student's t test.

IGF-IR mRNA [2] = assay: IGF-IR mRNA in PC3 Ptx-R cells; format: cell-based, human; settings: 10 to 200 nM, compared to oligofectamine transfection reagent
Excerpt: (§3) The PC3 Ptx-R cells retain sensitivity to ATL1101-induced IGF-IR down regulation at the mRNA and protein level as shown in FIGS. 11A-C. […] ATL1101 and the control oligodeoxynucleotide ISIS 306064 had no effect on either of the alternative spliced isoform transcripts of the insulin receptor, IR-A, IR-B or IR-β protein or vinculin protein levels.

LNCaP cells [3] = assay: LNCaP cell viability, crystal violet assay; format: cell-based, human; settings: three days after treatment
Experimental: as §1, §2

IGF-IR mRNA [4] = assay: IGF-IR mRNA expression in transfected LNCaP and PC-3 cells, quantitative RT-PCR; format: cell-based, human; settings: LNCaP and PC-3 cells, maximal doses tested
Experimental: as §1
FIGS. 1A(i)-1A(ii) show the sequence-specific and dose-dependent suppression of IGF-IR mRNA expression levels by ATL1101 in LNCaP (FIG. 1A (i)) and PC-3 (FIG. 1A (ii)) cells. […] One day after treatment, total RNA was extracted, and IGF-IR mRNA expression was analyzed by quantitative RT-PCR. IGF-IR mRNA levels were normalized to levels of GAPDH mRNA and expressed here as mean±SE. ***, p<0.001 differ from control (oligofectamine only) by Student's t test. “Control” cells were treated with oligofectamine only. In LNCaP cells, IGF-IR expression was >70% suppressed by 10 nM ATL1101 and >90% at 200 nM ATL1101. In PC3 cells, IGF-IR expression was suppressed ˜40% at 10 nM ATL1101, >50% at 50 nM ATL1101 and ˜80% at 200 nM. Control oligodeoxynucleotide (ISIS 306064) did suppress IGF-IR mRNA expression but by less than 25% at maximal doses tested

LNCaP cells [5] = assay: LNCaP cell cycle and apoptosis, flow cytometry with propidium iodide; format: cell-based, human; settings: 100 nM
Experimental: as §1
(§4) The Effect of IGF-IR silencing with IGF-IR antisense oligonucleotide (ATL1101) on LNCaP and PC3 cell apoptosis and cell cycle is shown in FIGS. 4A(i)-(ii), 4B, 4C(i)-(ii), and Table 2. Cells were transfected with indicated concentrations of ATL1101, control oligodeoxynucleotide or oligofectamine as in FIGS. 1A(i)-1B(ii). Two days after treatment, cell cycle analysis was determined by flow cytometry using propidium iodide staining. […] In FIGS. 4C(i)-(ii), LNCaP (FIG. 4C (i)) or PC-3 (FIG. 4C (ii)) cells were transfected with indicated concentration of ATL1101 or control oligodeoxynucleotide (ISIS 306064) for two days. Cells were then cultured in FBS media for one day and in serum-free media for one day. Whole cell lysates (30 μg) were subjected to SDS-PAGE and immunoblotted to assess Cyclin D1, Cyclin E, p-RB, total Rb, and p27 protein levels. Oligo, oligofectamine treated cells only.

PC3 cells [6] = assay: PC3 cell cycle and apoptosis, flow cytometry with propidium iodide; format: cell-based, human; settings: PC3, FBS condition, 200 nM
Experimental: as §1, §4

[7] = tested on: IGF-IRβ, p-AKT, p-ERK1/2, cleaved PARP; assay: Intracellular signaling in LNCaP and PC3 cells, immunoblot; format: cell-based, human; settings: 100 nM
Experimental: The suppression of intracellular signaling in IGF-IR antisense oligonucleotide-treated LNCaP (FIG. 3A) and PC3 (FIG. 3B) in vitro is shown in FIGS. 3A-3B. LNCaP or PC3 cells were transfected with 100 nM ATL1101 or control oligodeoxynucleotide (ISIS 306064) for two days. Cells were then cultured in FBS media for one day and in serum-free media for one day. Whole cell lysates (30 μg) were subjected to SDS-PAGE and immunoblotted to assess IGF-IRβ, p-AKT, total AKT, p-ERK1/2, total ERK1/2, cleaved PARP, and vinculin protein levels. Oligo, oligofectamine treated cells only.

IGF-IRβ subunit protein = IGF-IRβ subunit protein in PC3 Ptx-R cells; format: cell-based, human; settings: 10 to 200 nM, compared to oligofectamine transfection reagent
Excerpt: as §3

[8] = tested on: insulin receptor IR-A, IR-B, IR-β protein; assay: Insulin receptor transcripts and protein in PC3 Ptx-R cells; format: cell-based, human
Excerpt: as §3

Substance: ISIS 306064: 8 nucleotide mismatch control oligonucleotide; Negative Control ODN (CCAATGATAACAAACGCGGA; chemistry not given here) [reference compound]
- cell viability (Ptx-R PC3 cells): approximately 45%
- mean tumor size (PC3 tumors; after 5 weeks of treatment): 326+/−40.9 mm^3
- mean tumor size (PC3 tumors; after 8 weeks of treatment): 1417+/−222 mm^3
- cytotoxic effect on cell viability (PC3 cells [1]): dose-dependent cytotoxic effect
- IGF-IR mRNA levels (IGF-IR mRNA [2]): no effect
- cytotoxic effect on cell viability (LNCaP cells [3]): dose-dependent cytotoxic effect
- suppression of IGF-IR mRNA expression (IGF-IR mRNA [4]): less than 25%
- % of total cells, G0/G1 (LNCaP cells [5]; CSS condition): 70.1%
- % of total cells, G2/M (LNCaP cells [5]; CSS condition): 4.4%
- % of total cells, S (LNCaP cells [5]; CSS condition): 3.8%
- % of total cells, Sub G0/G1 (LNCaP cells [5]; CSS condition): 21.7%
- subG0/G1 + G0/G1:S + G2/M (LNCaP cells [5]; CSS condition): 11.2
- % of total cells, G0/G1 (LNCaP cells [5]; FBS condition): 65.4%
- % of total cells, G2/M (LNCaP cells [5]; FBS condition): 12.6%
- % of total cells, S (LNCaP cells [5]; FBS condition): 11.2%
- subG0/G1 + G0/G1:S + G2/M (LNCaP cells [5]; FBS condition): 3.2
- % of total cells, Sub G0/G1 (LNCaP cells [5]; FBS condition, two days after treatment): 10.8%
- % of total cells, G0/G1 (PC3 cells [6]): 58.5%
- % of total cells, G2/M (PC3 cells [6]): 18.2%
- % of total cells, S (PC3 cells [6]): 13.7%
- % of total cells, Sub G0/G1 (PC3 cells [6]): 9.6%
- subG0/G1 + G0/G1:S + G2/M (PC3 cells [6]): 2.1
- IGF-IR expression, down-stream kinase signaling and induction of PARP cleavage versus oligofectamine-treated cells [7]: indistinguishable
- IGF-IRβ subunit protein levels (IGF-IRβ subunit protein): no effect
- insulin receptor IR-A, IR-B transcripts or IR-β protein levels [8]: no effect
